Molecular target: Aldose reductase (Oryctolagus cuniculus)
Experiment: In vitro inhibition of rabbit lens aldose reductase.

Compound	IC50 [nM]
O=C(O)Cc1ccc2c(c1)OCc1ccccc1C2=O [Oxepinac]	330
O=C(O)Cc1cc(O)c2c(=O)c3ccccc3ccc2c1 [(4-Hydroxy-5-oxo-5H-dibenzo[a,d]cyclohepten-2-yl)-acetic acid]	760
CC(C(=O)O)c1cc(O)c2c(=O)c3ccccc3ccc2c1 (stereo not given) [2-(4-Hydroxy-5-oxo-5H-dibenzo[a,d]cyclohepten-2-yl)-propionic acid]	2700
CC(C(=O)O)c1cc(O)c2c(c1)CCc1ccccc1C2=O (stereo not given) [2-(4-Hydroxy-5-oxo-10,11-dihydro-5H-dibenzo[a,d]cyclohepten-2-yl)-propionic acid]	210
O=C(O)Cc1ccc2c(c1)CCc1ccccc1C2=O [(5-Oxo-10,11-dihydro-5H-dibenzo[a,d]cyclohepten-2-yl)-acetic acid]	160000
O=C(O)Cc1ccc2c(c1)CCc1ccc(O)cc1C2=O [(7-Hydroxy-5-oxo-10,11-dihydro-5H-dibenzo[a,d]cyclohepten-2-yl)-acetic acid]	830
O=C(O)Cc1ccc2c(c1)CCc1cccc(O)c1C2=O [(6-Hydroxy-5-oxo-10,11-dihydro-5H-dibenzo[a,d]cyclohepten-2-yl)-acetic acid]	280000
O=C1Cc2ccc3c(c2O1)CCc1ccccc1C3=O [11,12-Dihydro-3H-1-oxa-benzo[4,5]cyclohepta[1,2-e]indene-2,6-dione]	770
O=C(O)Cc1cc(O)c2c(c1)CCc1ccccc1C2=O [(4-Hydroxy-5-oxo-10,11-dihydro-5H-dibenzo[a,d]cyclohepten-2-yl)-acetic acid]	110000
O=C(O)Cc1ccc2c(=O)c3ccccc3ccc2c1 [(5-Oxo-5H-dibenzo[a,d]cyclohepten-2-yl)-acetic acid]	1000

Reference: BindingDB's records for doi:10.1021/jm00161a033 (1986)
